Source: patent US8192962B2, “Processes for detecting toxic substances” (Daikin Industries, Ltd., priority 2001, dated 2012)

Tested on: Metabolism protein genes
Assay: DNA chip mRNA expression in yeast, metabolism protein genes (Table 7)
Assay type: cell-based, Saccharomyces cerevisiae S288C
Method: Yeast (Saccharomyces cerevisiae S288C (α SUC2mal mel gap2 CUP1)) were incubated at 25° C. on YPD medium (yeast extract 1%, polypepton 2%, glucose 2%). One of toxic chemical substances was added to the cells at logarithmic growth phase, and the cells were further incubated for two hours. Cells were cultured without any chemical substance in the same condition, and were used as control. Concentrations of the chemical substances were defined to inhibit the growth of the yeast but not lead to death.
After completion of the incubation, the culture was centrifuged to collect the cells. To the cells, sodium acetate buffer (50 mM sodium acetate, 10 mM EDTA, 1% SDS) was added, and the mixture was shaken at 65° C. for five minutes, followed by returning to room temperature, and obtaining the supernatant, of which the procedures were repeated two times. To the supernatant, ½ amount of a solution of phenol/chloroform was added, and the mixture was centrifuged to give a supernatant, which was added with an equal amount of chloroform, and the mixture was centrifuged to give a supernatant. To the supernatant, an equal amount of isopropanol containing 0.3 M sodium acetate was added, and the mixture was allowed to stand at room temperature for 30 minutes, after which the mixture was centrifuged to give a sediment of the whole RNAs. Seventy % ethanol was added to the sediment, and the mixture was again centrifuged to give a sediment, which was then dried and dissolved in water. mRNA was isolated from the whole RNAs as followings. In view of the fact that a poly A chain is attached to the 3′ terminus of mRNA, a polynucleotide having a poly T structure which was immobilized on the surface of latex beads was used to trap the mRNA, and then the mRNA was washed and eluted with spine column (Oligotex-dT30<Super>mRNA Purification Kit, Takara). Reverse transcription of the mRNA was conducted with a reverse transcriptase (Super Script II Reverse Transcriptase; catalogue No. 18064-014, GibcoBRL) using fluorescence-labeled nucleotides to give cDNAs that were introduced with Cy3-dUTP or Cy5-dUTP during the reverse transcription.
The labeled cDNAs were dissolved in TE buffer (10mM Tris-HCl/1 mM EDTA, pH8.0), and the solution was dropped on the DNA chip containing the whole genes of yeast (DNA Chip Research Inc. Japan) so that the cDNAs were hybridized on the DNA chip at 65° C. for over 12 hours. The fluoresces intensity of the DNA chip was read with a scanner, and the ratio relative to the fluorescence intensity resulting from the absence of chemical substance was estimated as the following, which is shown in Tables 1 to 9: […]

C=CC=O [(14), acrolein]
level of expressed mRNA in the presence/in the absence of chemical substance (yeast gene YKL060C): 0.8
The level of expressed mRNA in the presence of chemical substance/The level of expressed mRNA in the absence of chemical substance (yeast gene YKL091C): 1.5
The level of expressed mRNA in the presence of chemical substance/The level of expressed mRNA in the absence of chemical substance (yeast gene YKL104C): 0.8
level of expressed mRNA in the presence/in the absence of chemical substance (yeast gene YKL148C): 0.8
The level of expressed mRNA in the presence of chemical substance/The level of expressed mRNA in the absence of chemical substance (yeast gene YKL152C): 1.0
level of expressed mRNA in the presence/in the absence of chemical substance (yeast gene YKL157W): 0.8
The level of expressed mRNA in the presence of chemical substance/The level of expressed mRNA in the absence of chemical substance (yeast gene YKL213C): 0.9
The level of expressed mRNA in the presence of chemical substance/The level of expressed mRNA in the absence of chemical substance (yeast gene YKL215C): 1.0
level of expressed mRNA in the presence/in the absence of chemical substance (yeast gene YKR034W): 1.1
The level of expressed mRNA in the presence of chemical substance/The level of expressed mRNA in the absence of chemical substance (yeast gene YKR039W): 1.2
The level of expressed mRNA in the presence of chemical substance/The level of expressed mRNA in the absence of chemical substance (yeast gene YLL058W): 0.8
level of expressed mRNA in the presence/in the absence of chemical substance (yeast gene YLR006C): 1.0
level of expressed mRNA in the presence/in the absence of chemical substance (yeast gene YLR044C): 0.5
level of expressed mRNA in the presence/in the absence of chemical substance (yeast gene YLR056W): 0.7
level of expressed mRNA in the presence/in the absence of chemical substance (yeast gene YLR058C): 0.7
level of expressed mRNA in the presence/in the absence of chemical substance (yeast gene YLR081W): 1.0
level of expressed mRNA in the presence/in the absence of chemical substance (yeast gene YLR089C): 0.7
The level of expressed mRNA in the presence of chemical substance/The level of expressed mRNA in the absence of chemical substance (yeast gene YLR180W): 0.6
The level of expressed mRNA in the presence of chemical substance/The level of expressed mRNA in the absence of chemical substance (yeast gene YLR273C): 1.3
level of expressed mRNA in the presence/in the absence of chemical substance (yeast gene YLR284C): 1.3
The level of expressed mRNA in the presence of chemical substance/The level of expressed mRNA in the absence of chemical substance (yeast gene YLR299W): 1.3
The level of expressed mRNA in the presence of chemical substance/The level of expressed mRNA in the absence of chemical substance (yeast gene YLR300W): 0.6
The level of expressed mRNA in the presence of chemical substance/The level of expressed mRNA in the absence of chemical substance (yeast gene YLR303W): 3.8
level of expressed mRNA in the presence/in the absence of chemical substance (yeast gene YLR304C): 0.7
The level of expressed mRNA in the presence of chemical substance/The level of expressed mRNA in the absence of chemical substance (yeast gene YLR307W): 1.9
The level of expressed mRNA in the presence of chemical substance/The level of expressed mRNA in the absence of chemical substance (yeast gene YLR348C): 1.0
level of expressed mRNA in the presence/in the absence of chemical substance (yeast gene YLR354C): 0.9
level of expressed mRNA in the presence/in the absence of chemical substance (yeast gene YLR372W): 0.6
level of expressed mRNA in the presence/in the absence of chemical substance (yeast gene YML022W): 0.9
The level of expressed mRNA in the presence of chemical substance/The level of expressed mRNA in the absence of chemical substance (yeast gene YML054C): 2.1
The level of expressed mRNA in the presence of chemical substance/The level of expressed mRNA in the absence of chemical substance (yeast gene YML070W): 1.3
The level of expressed mRNA in the presence of chemical substance/The level of expressed mRNA in the absence of chemical substance (yeast gene YML100W): 1.2
The level of expressed mRNA in the presence of chemical substance/The level of expressed mRNA in the absence of chemical substance (yeast gene YMR008C): 0.7
level of expressed mRNA in the presence/in the absence of chemical substance (yeast gene YMR011W): 0.6
level of expressed mRNA in the presence/in the absence of chemical substance (yeast gene YMR015C): 0.8
The level of expressed mRNA in the presence of chemical substance/The level of expressed mRNA in the absence of chemical substance (yeast gene YMR020W): 1.1
The level of expressed mRNA in the presence of chemical substance/The level of expressed mRNA in the absence of chemical substance (yeast gene YMR081C): 1.8
level of expressed mRNA in the presence/in the absence of chemical substance (yeast gene YMR083W): 0.8
The level of expressed mRNA in the presence of chemical substance/The level of expressed mRNA in the absence of chemical substance (yeast gene YMR105C): 1.0
The level of expressed mRNA in the presence of chemical substance/The level of expressed mRNA in the absence of chemical substance (yeast gene YMR189W): 1.6
level of expressed mRNA in the presence/in the absence of chemical substance (yeast gene YMR205C): 0.5
level of expressed mRNA in the presence/in the absence of chemical substance (yeast gene YMR261C): 0.6
The level of expressed mRNA in the presence of chemical substance/The level of expressed mRNA in the absence of chemical substance (yeast gene YMR271C): 1.8
The level of expressed mRNA in the presence of chemical substance/The level of expressed mRNA in the absence of chemical substance (yeast gene YMR296C): 0.7
level of expressed mRNA in the presence/in the absence of chemical substance (yeast gene YMR323W): 1.2
The level of expressed mRNA in the presence of chemical substance/The level of expressed mRNA in the absence of chemical substance (yeast gene YNL012W): 1.0
level of expressed mRNA in the presence/in the absence of chemical substance (yeast gene YNL025C): 1.2
The level of expressed mRNA in the presence of chemical substance/The level of expressed mRNA in the absence of chemical substance (yeast gene YNL037C): 1.3
The level of expressed mRNA in the presence of chemical substance/The level of expressed mRNA in the absence of chemical substance (yeast gene YNL045W): 0.8
The level of expressed mRNA in the presence of chemical substance/The level of expressed mRNA in the absence of chemical substance (yeast gene YNL104C): 0.9
The level of expressed mRNA in the presence of chemical substance/The level of expressed mRNA in the absence of chemical substance (yeast gene YNL106C): 1.1
The level of expressed mRNA in the presence of chemical substance/The level of expressed mRNA in the absence of chemical substance (yeast gene YNL169C): 0.9
level of expressed mRNA in the presence/in the absence of chemical substance (yeast gene YNL192W): 0.7
The level of expressed mRNA in the presence of chemical substance/The level of expressed mRNA in the absence of chemical substance (yeast gene YNL231C): 0.9
The level of expressed mRNA in the presence of chemical substance/The level of expressed mRNA in the absence of chemical substance (yeast gene YNL322C): 1.2
The level of expressed mRNA in the presence of chemical substance/The level of expressed mRNA in the absence of chemical substance (yeast gene YNL331C): 7.5
The level of expressed mRNA in the presence of chemical substance/The level of expressed mRNA in the absence of chemical substance (yeast gene YNL332W): 3.0
The level of expressed mRNA in the presence of chemical substance/The level of expressed mRNA in the absence of chemical substance (yeast gene YNR002C): 1.2
The level of expressed mRNA in the presence of chemical substance/The level of expressed mRNA in the absence of chemical substance (yeast gene YNR019W): 1.0
The level of expressed mRNA in the presence of chemical substance/The level of expressed mRNA in the absence of chemical substance (yeast gene YNR033W): 0.9
The level of expressed mRNA in the presence of chemical substance/The level of expressed mRNA in the absence of chemical substance (yeast gene YNR059W): 1.0
The level of expressed mRNA in the presence of chemical substance/The level of expressed mRNA in the absence of chemical substance (yeast gene YOL058W): 1.5
level of expressed mRNA in the presence/in the absence of chemical substance (yeast gene YOL086C): 0.6
level of expressed mRNA in the presence/in the absence of chemical substance (yeast gene YOL108C): 0.9
level of expressed mRNA in the presence/in the absence of chemical substance (yeast gene YOL116W): 0.9
The level of expressed mRNA in the presence of chemical substance/The level of expressed mRNA in the absence of chemical substance (yeast gene YOL126C): 1.2
The level of expressed mRNA in the presence of chemical substance/The level of expressed mRNA in the absence of chemical substance (yeast gene YOL151W): 4.0
The level of expressed mRNA in the presence of chemical substance/The level of expressed mRNA in the absence of chemical substance (yeast gene YOL153C): 1.5
level of expressed mRNA in the presence/in the absence of chemical substance (yeast gene YOL156W): 0.9
The level of expressed mRNA in the presence of chemical substance/The level of expressed mRNA in the absence of chemical substance (yeast gene YOL165C): 9.1
level of expressed mRNA in the presence/in the absence of chemical substance (yeast gene YOR002W): 0.9
level of expressed mRNA in the presence/in the absence of chemical substance (yeast gene YOR085W): 0.7
The level of expressed mRNA in the presence of chemical substance/The level of expressed mRNA in the absence of chemical substance (yeast gene YOR099W): 0.7
level of expressed mRNA in the presence/in the absence of chemical substance (yeast gene YOR103C): 1.2
level of expressed mRNA in the presence/in the absence of chemical substance (yeast gene YOR108W): 0.9
level of expressed mRNA in the presence/in the absence of chemical substance (yeast gene YOR128C): 0.7
The level of expressed mRNA in the presence of chemical substance/The level of expressed mRNA in the absence of chemical substance (yeast gene YOR130C): 1.3
level of expressed mRNA in the presence/in the absence of chemical substance (yeast gene YOR142W): 0.8
level of expressed mRNA in the presence/in the absence of chemical substance (yeast gene YOR176W): 0.8
level of expressed mRNA in the presence/in the absence of chemical substance (yeast gene YOR178C): 1.0
level of expressed mRNA in the presence/in the absence of chemical substance (yeast gene YOR251C): 1.1
The level of expressed mRNA in the presence of chemical substance/The level of expressed mRNA in the absence of chemical substance (yeast gene YOR336W): 1.1
The level of expressed mRNA in the presence of chemical substance/The level of expressed mRNA in the absence of chemical substance (yeast gene YOR347C): 0.9
level of expressed mRNA in the presence/in the absence of chemical substance (yeast gene YOR348C): 1.2
The level of expressed mRNA in the presence of chemical substance/The level of expressed mRNA in the absence of chemical substance (yeast gene YPL017C): 1.6
level of expressed mRNA in the presence/in the absence of chemical substance (yeast gene YPL028W): 0.8
level of expressed mRNA in the presence/in the absence of chemical substance (yeast gene YPL057C): 0.7
level of expressed mRNA in the presence/in the absence of chemical substance (yeast gene YPL135W): 1.1
level of expressed mRNA in the presence/in the absence of chemical substance (yeast gene YPL148C): 1.6
The level of expressed mRNA in the presence of chemical substance/The level of expressed mRNA in the absence of chemical substance (yeast gene YPR026W): 1.5
level of expressed mRNA in the presence/in the absence of chemical substance (yeast gene YPR113W): 1.3
level of expressed mRNA in the presence/in the absence of chemical substance (yeast gene YPR165W): 1.0
The level of expressed mRNA in the presence of chemical substance/The level of expressed mRNA in the absence of chemical substance (yeast gene YPR167C): 4.2
level of expressed mRNA in the presence/in the absence of chemical substance (yeast gene YPR183W): 0.7
